The source of these data is patent US9938335B2, “Glucagon and GLP-1 co-agonist compounds” (Eli Lilly and Company, priority 2015, dated 2018).

One data set has as its target T1, rat GLP-1-R (Rattus norvegicus, UniProt P32301).
T1 construct: stimulating cAMP production at the endogenous GLP-1 receptors; endogenous in cells; host or cells: INS1 832-3 rat insulinoma cells
T1 sequence (P32301 22-463): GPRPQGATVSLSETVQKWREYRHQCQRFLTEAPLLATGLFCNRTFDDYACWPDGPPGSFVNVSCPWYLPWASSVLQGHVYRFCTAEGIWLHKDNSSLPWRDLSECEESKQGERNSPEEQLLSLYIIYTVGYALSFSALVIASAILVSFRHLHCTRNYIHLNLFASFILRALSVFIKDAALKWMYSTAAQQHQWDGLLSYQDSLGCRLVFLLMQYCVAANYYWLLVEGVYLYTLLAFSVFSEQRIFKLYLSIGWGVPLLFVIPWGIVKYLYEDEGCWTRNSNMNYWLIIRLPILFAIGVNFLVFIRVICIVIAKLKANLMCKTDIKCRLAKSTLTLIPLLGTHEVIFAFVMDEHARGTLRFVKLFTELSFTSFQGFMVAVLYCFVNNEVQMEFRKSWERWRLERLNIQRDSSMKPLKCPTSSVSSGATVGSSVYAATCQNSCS
As to the kind of experiment: Functional activation of the rat GLP-1-R in insulinoma cell line INS1 832-3 (cAMP). The data set is classed as cell-based.

For another data set, the system named is DIO mice (C57BL/6). The data set is described as follows: Effects on energy expenditure in DIO mice (indirect calorimetry). The data set is classed as in vivo, mouse. Conditions: for Cumulative Heat (Kcal/kg lean mass/3 day): test article 15 nmol/kg, semaglutide 60 nmol/kg sc every three days. How it is done: Seven to eight months old male DIO mice (C57BL/6) weighing 45-50 g are used in this study to assess the effect of compounds of the present invention on energy metabolism. Animals are individually housed in a temperature-controlled (24° C.) facility with a 12 hour light/dark cycle (lights on 22:00), and free access to food (TD95217)(Teklad) and water. After 2 weeks acclimation to the facility, mice are randomized to treatment groups (N=6/group) based on body weight so each group has similar starting mean body weight. Animals are placed in a PhenoMaster/LabMaster calorimeter (TSE Systems, Chesterfield, Mo.) for 8 days of acclimation.
Heat and […] (RER) are measured by indirect calorimetry as described using an open-circuit calorimetry system. RER is the ratio of the volume of CO2 produced (VCO2) to the volume of O2 consumed (VO2). Heat is calculated with lean body weight considered. The energy expenditure is kcal/kg/3 day and expressed as mean±SEM of 6 mice per group. Statistical significance is assessed by two-way ANOVA followed by Tukey's multiple comparison test.

The nature of data set [1]: Viscosity (Rheosense mVroc Viscometer). Format: physicochemical. Conditions: approximately 10 mg/mL peptide in 10 mM Tris + 3 mg/mL m-cresol at pH 8.0; 25° C.; shear rate 1934 s^−1. How it is done: Viscosity of compounds of the present invention is measured in a Rheosense mVroc Viscometer with the following settings:
(a) Syringe size: 500 μL syringe
(b) Flow Rate: 100 μL/min flow rate
(c) Average Temperature: 25° C.
(d) Shear Rate: 1934 s^−1
Dry powder (compound) is weighed out, dissolved in water as a cloudy precipitate, and titrated to approximately pH 8.0 with 1N NaOH. The solution is sonicated and swirled by hand until peptide is in solution. Samples are sterile filtered (0.22 μm PVDF filters). Samples are then analyzed by UV-Vis to assess stock solution concentrations. Solutions are diluted to final concentration using 3× m-cresol in 10 mM Tris pH 8.0 buffer to final concentrations of approximately 10 mg/mL peptide by weight in 10 mM Tris+3 mg/mL m-cresol at pH 8.0. Samples were filtered through 0.22 μm filters immediately prior to viscosity analysis. 25 μL of sample are removed to verify concentration by RP-HPLC before and after analysis.
Water and buffer control samples are measured before and after each sample is analyzed. The instrument is washed with buffer (3×) in between analysis of each sample. The samples are loaded into individual syringes and analyzed. The first measurement is not included in the final calculation to allow for equilibration with the system. Samples are then analyzed in triplicate (n=3).
The viscosity of Compounds 1-4 was measured essentially as described in this assay.

Another data set concerns the target hGcg-R (Homo sapiens, UniProt P47871). The data set is described as follows: Functional activation of hGcg-R in primary human hepatocytes (cAMP). Format: cell-based. Further details: stimulating cAMP production at the endogenous Gcg receptors; endogenous in cells; host or cells: cryopreserved primary human hepatocytes.
A short description of data set [2]: Pharmacokinetics in cynomolgus monkeys. Conditions: Table 8: single SC 50 nmol/kg; for Cmax: read-out: Cmax. The data set is classed as in vivo. How it is done:
The compounds are administered by a single intravenous or subcutaneous dose of 50 nmole/kg or 250 nmole/kg.
The plasma concentrations of compounds are determined by a LC/MS method. Briefly, a compound of the present invention is extracted from 100% monkey plasma (25 μl) using acetonitrile. Two distinct layers are formed upon centrifugation with the compound located in the liquid layer. An 80 μl aliquot of the supernatant was transferred to a 96-well plate, diluted with 150 μl of water and 25 μl of formic acid. The diluted sample (10 μl) was injected onto a Supelco Analytical Discovery BIO Wide Pore C5-3, 5 cm×1 mm, 3 um column. The column effluent is directed into a Thermo Q-Exactive mass spectrometer for detection and quantitation.

[3] abbreviates: male, cynomolgus monkey, plasma, sc, 50 nmol/kg, individual animals.
Setting [4] is: male, cynomolgus monkey, plasma, sc, 50 nmol/kg, mean.

Like-named read-outs stand apart in the source and are kept apart here. Starred links: 1 amine or outer side, 2 acyl side, 3 side chain; linkers in the order of their positions; H or OH if unused. Non-standard residues stand in square brackets, D forms with d. Residues, ends and D or L forms follow the SMILES beside them. Groups on a side chain read outwards from the residue. *: point of attachment. C18 diacid = O=C(O)CCCCCCCCCCCCCCCCC(=O)*; γGlu = O=C(O)[C@H](CCC(=O)[*:2])N[*:1]; AEEA = NCCOCCOCC(=O)O; Aib = CC(C)(N)C(=O)O

hGcg-R, sequence (P47871 26-477): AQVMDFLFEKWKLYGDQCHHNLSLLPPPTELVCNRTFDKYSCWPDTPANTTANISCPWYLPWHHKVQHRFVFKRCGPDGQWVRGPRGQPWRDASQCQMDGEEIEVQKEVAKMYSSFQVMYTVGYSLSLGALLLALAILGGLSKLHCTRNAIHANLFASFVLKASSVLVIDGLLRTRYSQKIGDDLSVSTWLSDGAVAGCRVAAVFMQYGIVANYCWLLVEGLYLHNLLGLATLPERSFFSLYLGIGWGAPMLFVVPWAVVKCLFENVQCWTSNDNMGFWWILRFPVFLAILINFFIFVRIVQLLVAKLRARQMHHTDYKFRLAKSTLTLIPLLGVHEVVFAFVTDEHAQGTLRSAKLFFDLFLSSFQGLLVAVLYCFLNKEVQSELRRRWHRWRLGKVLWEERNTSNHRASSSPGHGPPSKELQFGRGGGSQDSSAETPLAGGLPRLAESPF
Method for hGcg-R: Primary human hepatocytes are used to determine functional activity of compounds on stimulating cAMP production at the endogenous Gcg receptors. Vials of human primary hepatocytes are frozen in a liquid nitrogen tank. Upon removal, vials are thawed immediately in a water bath having a temperature of 37° C. Cell suspension is then transferred to 50 ml CHRM (Gibco/Life Technologies cat#CM7000 Cryopreserved Hepatocyte Recovery Medium).
The cell suspension is centrifuged at 1,000×g for 10 min. Cell pellets are resuspended in 5 ml of Plating Media after removing the CHRM by aspiration. The Plating Media is prepared by adding entire contents of CM3000 Supplement Packs to 500 ml Williams Media (Gibco/Life Technologies), followed by sterile filtration through a 0.22 μm membrane.
The cell density is counted on hemocytometer, by adding 100 μl of cell suspension to 100 μl Trypan Blue (HyClone Trypan Blue 0.04%, catalog number SV30084.01). The cell suspension is further diluted in the Plating Media to the final cell density of 0.8×10^6 cells per ml. […] 65 ml of the cell suspension is then added to each well of the Collagen coated 96-well plate to final cell density 50,000 cells per well. The cell plate is incubated in a 37° C., 5% CO2 incubator for 3-4 hours.
After 3-4 hours incubation, the media is aspirated and replaced with 100 ml Maintenance Media. The maintenance media is prepared by adding entire contents of CM4000 Supplement Packs to 500 ml Williams Media (Gibco/Life Technologies), followed by sterile filtration through a 0.22 μm membrane. The cell plate is returned to the 37° C., 5% CO2 incubator overnight in preparation for the cAMP assay.
The cell plate is removed from the incubator and the media is removed by gentle aspiration without disturbing the cell monolayer.
cAMP concentration is measured using a HTRF cAMP assay kit (Cisbio): cAMP-d2 conjugate in cell lysis buffer (40 μl) followed by the antibody anti-cAMP-Eu^3+-Cryptate, also in cell lysis buffer (40 μl), is added to the cells of the plate.
Method for rat GLP-1-R: Performance of the assay requires detachment of the cells from culture flasks using Enzyme Free Cell Stripper and pelleted by centrifugation at 1000 rpm for 5 minutes at room temperature. […] After 2 hours starvation, cells are treated with compound by adding 10 μl of 5× compound dilutions into the cell plates (n=2) and incubated in a 37° C., 5% CO2 incubator for 30 minutes.
cAMP concentration is measured using a HTRF cAMP assay kit (Cisbio): cAMP-d2 conjugate in cell lysis buffer (20 μl) followed by the antibody anti-cAMP-Eu^3+-Cryptate, also in cell lysis buffer (20 μl), is added to the cells of the plate.
The assay is performed with duplicated plates.

As for `CC(C)C[C@H](NC(=O)[C@H](CC(C)C)NC(=O)[C@H](Cc1c[nH]c2ccccc12)NC(=O)[C@H](CCC(=O)O)NC(=O)[C@@H](NC(=O)[C@H](Cc1ccccc1)NC(=O)[C@H](CCC(=O)O)NC(=O)[C@H](CCCCNC(=O)COCCOCCNC(=O)COCCOCCNC(=O)CC[C@H](NC(=O)CCCCCCCCCCCCCCCCC(=O)O)C(=O)O)NC(=O)[C@H](C)NC(=O)[C@H](CCCCN)NC(=O)[C@H](CCCCN)NC(=O)[C@H](CCC(=O)O)NC(=O)[C@H](CC(=O)O)NC(=O)[C@H](CC(C)C)NC(=O)[C@H](Cc1ccc(O)cc1)NC(=O)[C@H](CCCCN)NC(=O)[C@H](CO)NC(=O)[C@H](Cc1ccc(O)cc1)NC(=O)[C@H](CC(=O)O)NC(=O)[C@H](CO)NC(=O)[C@@H](NC(=O)[C@H](Cc1ccccc1)NC(=O)[C@@H](NC(=O)CNC(=O)[C@H](CCC(N)=O)NC(=O)C(C)(C)NC(=O)[C@@H](N)Cc1c[nH]cn1)[C@@H](C)O)[C@@H](C)O)C(C)C)C(=O)N[C@@H](CCC(=O)O)C(=O)NCC(=O)NCC(=O)N1CCC[C@H]1C(=O)N[C@@H](CO)C(=O)N[C@@H](CO)C(=O)NCC(N)=O` [Compound 1], the 50% effective concentration (EC50) – broadly, the concentration at which the effect is half-maximal – was found to be 26.1 nM on rat GLP-1-R (INS1 832-3 cells, cAMP, 30 minutes) and 99.9 nM on hGcg-R (primary human hepatocytes, cAMP, 1 hour). Further, the cAMP production result at rat GLP-1-R (INS1 832-3 cells, data not shown) is reported as “increased cAMP production in a dose-dependent manner”; on hGcg-R (primary human hepatocytes, data not shown), “increased cAMP production in a dose-dependent manner”. In addition, the Emax (in general, the size of the effect at its maximum, as opposed to the concentration needed) was 112% on rat GLP-1-R (INS1, percent of maximal response with native GLP-1 peptide at 300 nM) and 100% at hGcg-R (percent of maximal response with a Gcg analog conjugated to a saturated C18 fatty acid (diacid)). Also, the metabolic rate result in the data set on DIO mice (C57BL/6) (DIO mice, chronic treatment) was “increased their metabolic rate starting from Week 2”. Also, the “Cumulative Heat (Kcal/kg lean mass/3 day)” value in the data set with DIO mice (C57BL/6) (Day 1 to Day 4) came out at 1749 ± 136 Kcal/kg lean mass/3 day; in the data set on DIO mice (C57BL/6) (Day 4 to Day 7) it was 1822 ± 173 Kcal/kg lean mass/3 day; with DIO mice (C57BL/6) (Day 7 to Day 10), 2349 ± 129 Kcal/kg lean mass/3 day; in the data set on DIO mice (C57BL/6) (Day 10 to Day 13) it was 2351 ± 144 Kcal/kg lean mass/3 day. Further, in data set [1], the “500 μL syringe Viscosity” value was 1.06 cP or mPa-s. Further, the AUC(0-inf) in data set [2] (individual animals) came out at 21.672 µM·h; in data set [2] (male, cynomolgus monkey, plasma, sc, 50 nmol/kg, individual animals, read-out: AUC0-inf) it was 24.9 µM·h; in data set [2] (male, cynomolgus monkey, plasma, sc, 50 nmol/kg, mean, read-out: AUC0-inf), 23.3 µM·h. The CL/F in data set [2] (individual animals) is 2.31 mL/h/kg; in data set [2] (male, cynomolgus monkey, plasma, sc, 50 nmol/kg, individual animals, read-out: CL/F (converted)) it was 2.01 mL/h/kg; in data set [2] (male, cynomolgus monkey, plasma, sc, 50 nmol/kg, mean, read-out: CL/F (converted)), 2.16 mL/h/kg. Besides, the Cmax (in general, the peak of the concentration-time curve) is 253 nM in data set [2] (individual animals), 236 nM in data set [2] (setting [3]) and 244 nM in data set [2] (setting [4]). In data set [2] (male cynomolgus monkeys, individual animals), this molecule displayed a T1/2 of 47 h. For the same molecule, the Tmax (in general, the time from dosing to the highest level) in data set [2] (setting [3]) is 12 h; in data set [2] (setting [4]) it was roughly 12 h. Moreover, the half-life (usually the time in which the quantity being followed falls by half) in data set [2] (male, cynomolgus monkey, plasma, sc, 50 nmol/kg, male cynomolgus monkeys, individual animals) was 67 h; in data set [2] (setting [4]) it was 57 h.

Regarding `CC(C)C[C@H](NC(=O)[C@H](CC(C)C)NC(=O)[C@H](Cc1c[nH]c2ccccc12)NC(=O)[C@H](CCC(=O)O)NC(=O)[C@@H](NC(=O)[C@H](Cc1ccccc1)NC(=O)[C@H](CCC(=O)O)NC(=O)[C@H](CCCCNC(=O)COCCOCCNC(=O)COCCOCCNC(=O)CC[C@H](NC(=O)CC[C@H](NC(=O)CCCCCCCCCCCCCCCCC(=O)O)C(=O)O)C(=O)O)NC(=O)[C@H](C)NC(=O)[C@H](CCCCN)NC(=O)[C@H](CCCCN)NC(=O)[C@H](CCC(=O)O)NC(=O)[C@H](CC(=O)O)NC(=O)[C@H](CC(C)C)NC(=O)[C@H](Cc1ccc(O)cc1)NC(=O)[C@H](CCCCN)NC(=O)[C@H](CO)NC(=O)[C@H](Cc1ccc(O)cc1)NC(=O)[C@H](CC(=O)O)NC(=O)[C@H](CO)NC(=O)[C@@H](NC(=O)[C@H](Cc1ccccc1)NC(=O)[C@@H](NC(=O)CNC(=O)[C@H](CCC(N)=O)NC(=O)C(C)(C)NC(=O)[C@@H](N)Cc1c[nH]cn1)[C@@H](C)O)[C@@H](C)O)C(C)C)C(=O)N[C@@H](CO)C(=O)NCC(=O)NCC(=O)N1CCC[C@H]1C(=O)N[C@@H](CO)C(=O)N[C@@H](CO)C(=O)NCC(N)=O` [Compound 3] (H-H[Aib]QGTFTSDYSKYLDEKKAK([AEEA-AEEA-γGlu-γGlu-C18 diacid])EFVEWLLSGGPSSG-NH2; N-terminus assumed), in data set [1], the “500 μL syringe Viscosity” value is reported as 1.03 cP or mPa-s.
